Data reported in US20090105155A1, “TRUNCATED LHRH FORMULATIONS” (priority 2004, published 2009).
Where no end group is shown, it is not given here.

Legend:
Assay type in all cases: in vivo
LHRH [1] = experiment: Testosterone and progesterone levels following vaccination with LHRH (6-10) or LHRH (4-10) (Example 3); settings: Beagles/foxhound dogs, 35 nmoles total peptides, 7-peptide pool with Iscomatrix; for hormone breakthrough: testosterone and progesterone
Procedure: (§1) Beagles/foxhound dogs were divided into two groups. One group (15 dogs) received three doses of 35 nmoles of total peptides consisting of a pool of peptides p4, p10, p24, p25, p27, p35 and p62 coupled to LHRH (6-10).
(§2) A second group (15 dogs) received three doses of 35 nmoles of total peptides consisting of a pool of peptides p4, p10, p24, p25, p27, p35 and p62 coupled to LHRH (4-10).
(§3) The dogs received the three doses of vaccine in week 0, 4 and 14 respectively.
(§4) 1 to 1.5 mg of each of the peptides were weighed out and dissolved in 100 ul of 4 M urea separately. The amounts of the solutions corresponding to 5 nmoles of each peptide were mixed and diluted with isotonic saline to the designated dose volume for injection (1 ml per dose). For each dose 150 ug of Iscomatrix•® (CSL, Melbourne, Australia) was also added as adjuvant. The vaccine was given to dogs in the scruff of the neck.

LHRH [2] = experiment: Anti-LHRH antibody titres induced by LHRH (6-10) and LHRH (4-10) (Example 3); settings: Beagles/foxhound dogs; 35 nmoles total peptides (pool p4, p10, p24, p25, p27, p35, p62) with Iscomatrix; week 0, 4, 14; compared with LHRH (6-10)
Procedure: as §1, §2, §3, §4

LHRH [3] = experiment: Anti-LHRH antibody titres induced by different priming and boosting regimes (Example 2); settings: Beagles/foxhound dogs, 5 nmoles total peptides (pool p25, p35, p62) with Iscomatrix; for titres of antibodies following the second dose of vaccine: doses week 0, 4, 14, LHRH (2-10) compared with LHRH (6-10)
Text: (§5) Beagles/foxhound dogs were divided into three groups. One group (12 dogs) received three doses of 5 nmoles of total peptides consisting of a pool of peptides p25, p35 and p62 coupled to LHRH (6-10).
(§6) A second group (6 dogs) received three doses of 5 nmoles of total peptides consisting of a pool of peptides p25, p35 and p62 coupled to LHRH (2-10).
(§7) A third group (6 dogs) received three doses of 5 nmoles of total peptides consisting of a pool of peptides p25, p35 and p62 coupled to LHRH (2-10) as the first dose. For the second and third dose the vaccine was the same pool of peptides but coupled to LHRH (6-10).
as §3
as §4, with “to 1.7” for “to 5”

LHRH [4] = experiment: Testosterone and progesterone levels in vaccinated dogs (Example 2); settings: Beagles/foxhound dogs; two doses; proportion of animals, compared with the other regimes
Text: as §5, §6, §7, §3
as §4, with “to 1.7” for “to 5”

LHRH (4-10): Vaccine: pool of peptides p4, p10, p24, p25, p27, p35 and p62 coupled to LHRH (4-10) (SYGLRPG), with Iscomatrix adjuvant
effect on progesterone levels (LHRH [1]; compared with LHRH (6-10)): more striking effect | effect on testosterone levels (LHRH [1]; compared with LHRH (6-10)): more striking effect | hormone breakthrough (LHRH [1]): no animals show hormone breakthrough | titres of antibodies (LHRH [2]): Higher titres

LHRH (2-10): Vaccine: pool of peptides p25, p35 and p62 coupled to LHRH (2-10), with Iscomatrix adjuvant (HWSYGLRPG; ends and bridges not checked; also: coupled to T helper peptide pool; UniProt P01148 25-33, looked up, fragment)
titres of antibodies following the second dose of vaccine (LHRH [3]): little apparent difference

LHRH (6-10): Vaccine: T helper epitope peptides coupled to LHRH (6-10), Iscomatrix; pool p25, p35, p62 (Example 2) or seven-peptide pool (Example 3) (GLRPG; ends and bridges not checked; also: coupled to T helper peptide pool; UniProt P01148 29-33, looked up, fragment)
hormone breakthrough (LHRH [1]): hormone breakthrough | levels of progesterone (LHRH [4]): lower levels | levels of testosterone (LHRH [4]): lower levels | titres of antibodies following the second dose of vaccine (LHRH [3]): little apparent difference

LHRH (2-10)-LHRH (6-10): Regime: p25, p35, p62 pool coupled to LHRH (2-10) as first dose, same pool coupled to LHRH (6-10) for second and third dose (HWSYGLRPG; ends and bridges not checked; also: coupled to T helper peptide pool; UniProt P01148 25-33, looked up, fragment)
titre in the primary antibody response (LHRH [3]; comparison of the three regimes): lowest titres
